Read-outs that look alike come from different tables or passages of the source.
Assays:
CMK-86 = assay: Cellular proliferation assay; type: cell-based
Experimental: (§1) All suspension cells were plated (96-well) in triplicate at 5,000-30,000 cells per well for testing (n=3). Viable cell number was estimated after 3, 7 and 10 days by counting viable cells from one vehicle well, generating a cell dilution series, transferring […] per well in duplicate to a 384-well plate, and performing a linear regression to CellTiter-Glo (Promega) response (SPECTRAmax M3, Molecular Devices). Cells from all wells were also fourfold diluted in media and transferred in duplicate for CellTiter-Glo measurement. On days 3 and 7, an equal volume for all wells was split-back with fresh media and compound, such that the resulting cell density for the vehicle well matched the initial seeding density. For days 7 and 10, estimated cell number represents the split-adjusted theoretical cell number. HCT116 were plated (96-well) in triplicate at 250 cells per well. Cells were incubated in the presence of vehicle, 1 μM paclitaxel, or compound. On day 7, CellTiter-Blue (Promega) response was measured and values were normalized to vehicle (100% growth) and paclitaxel (0% growth). For growth assays with inhibitors, n=3 for each concentration with two independent experiments.

HL-60 = assay: Cellular proliferation assay; type: cell-based; settings: AML/APL
Experimental: as §1

JeKo-1 = assay: Cellular proliferation assay; type: cell-based; settings: Mantle Cell Lymphoma
Experimental: as §1

Jurkat = assay: Cellular proliferation assay; type: cell-based; settings: T-ALL
Experimental: as §1

Kasumi-1 = assay: Cellular proliferation assay; type: cell-based; settings: AML, RUNX1-RUNX1T1
Experimental: as §1

ME-1 = assay: Cellular proliferation assay; type: cell-based; settings: ME-1 (CBFB-MYH11); 10-day treatment; read-out: G150 after 10 days of treatment
Experimental: as §1

MEG-01 = assay: Cellular proliferation assay; type: cell-based
Experimental: as §1

MKPL-1 = assay: Cellular proliferation assay; type: cell-based; settings: MKPL-1 (RBM6-CSF1R), adult non-DS-AMKL; 10-day treatment; read-out: G150 after 10 days of treatment
Experimental: as §1

MM1.S = assay: Cellular proliferation assay; type: cell-based; settings: MM
Experimental: as §1

MOLM-14 = assay: Cellular proliferation assay; type: cell-based
Experimental: as §1

MOLM-16 = assay: Cellular proliferation assay; type: cell-based; settings: AMkL < 1
Experimental: as §1

MV4; 11 = assay: Cellular proliferation assay; type: cell-based
Experimental: as §1

NB4 = assay: Cellular proliferation assay; type: cell-based; settings: AML/APL, PML-RARA
Experimental: as §1

OCI-LY1 = assay: Cellular proliferation assay; type: cell-based; settings: DLBCL
Experimental: as §1

REH = assay: Cellular proliferation assay; type: cell-based; settings: pre B-ALL, ETV6-RUNX1
Experimental: as §1

RS4; 11 = assay: Cellular proliferation assay; type: cell-based; settings: B-ALL, MLL-AF4
Experimental: as §1

SET-2 = assay: Cellular proliferation assay; type: cell-based
Experimental: as §1

SKNO-1 = assay: Cellular proliferation assay; type: cell-based
Experimental: as §1

UKE-1 = assay: Cellular proliferation assay; type: cell-based; settings: AML/MPN, JAK2V617F
Experimental: as §1

leukemia cell lines = assay: Cellular proliferation assay; type: cell-based; settings: K562 and HEL compared to MEG-01 and SET-2 (BCR-Abl or JAK2V617F)
Experimental: as §1

MV4;11-mCLP leukemia = assay: MV4;11 xenograft model; type: in vivo, mice
Experimental: The MV4;11 xenograft model was performed as previously described (Etchin, J. et al. Antileukemic activity of nuclear export inhibitors that spare normal hematopoietic cells. Leukemia 27, 66-74 (2013)). Two-million MV4;11-mCLP cells were injected into the tail vein of 7-week-old female non-obese diabetic-severe combined immuno-deficient (NOD-SCID)Il2rg^−/− (NSG) mice (The Jackson Laboratory) and tumour burden was assessed by bioluminescence imaging (BLI) using an IVIS Spectrum system (Caliper Life Sciences). Seven days after injection, leukaemia establishment was documented by BLI and mice were assigned to groups to achieve a similar mean BLI and treated intraperitoneally with vehicle (20% hydroxypropyl-β-cyclodextrin) or CA once daily for 15 days. After 30 days, blood counts were obtained (Hemavet 950 F, Drew Scientific) and spleen, femur and peripheral blood cells were collected and analysed by flow cytometry (LSR Fortessa, BD Biosciences) from three mice per group, having the highest, lowest and median BLI value. […]
(§2) Samples from all organs were then dissected and placed in nine cassettes per mouse. […] Survival was measured as the time from therapy initiation until moribund state. […]
as §2

Cortistatin A
IC50 (CMK-86; CMK-86 (GATA1s), pediatric DS-AMKL, 10-day treatment, read-out: G150 after 10 days of treatment): 8 nM
GI50 (CMK-86; CMK-86, AMkL, GATA1s): 8 nM
GI50 (HL-60): 7 nM
GI50 (JeKo-1): < 1 nM
GI50 (Jurkat): 155 nM
GI50 (Kasumi-1): 95 nM
IC50 (ME-1): 1 nM
IC50 (MEG-01; MEG-01 (BCR-AB1, GAGA1s), adult non-DS-AMKL, 10-day treatment, read-out: G150 after 10 days of treatment): 9 nM
GI50 (MEG-01; MEG-01, CML/AMkL, BCR-ABL, GATA1s): 9 nM
IC50 (MKPL-1): 1 nM
GI50 (MM1.S): 5 nM
GI50 (MOLM-14; MOLM-14 (MLL-AF9), 10-day treatment, read-out: G150 after 10 days of treatment): 5 nM
GI50 (MOLM-14; MOLM-14, AML, MLL-AF9, read-out: GI50): 5 nM
GI50 (MOLM-16): < 1 nM
IC50 (MV4; 11; 11 (MLL-AF4), 10-day treatment, read-out: G150 after 10 days of treatment): 6 nM
GI50 (MV4; 11; 11, AML, MLL-AF4): 6 nM
GI50 (NB4): > 1000 nM
GI50 (OCI-LY1): 37 nM
GI50 (REH): 1 nM
GI50 (RS4; 11): 3 nM
IC50 (SET-2; SET-2 (JAK2V617F), 10-day treatment, read-out: G150 after 10 days of treatment): 4 nM
GI50 (SET-2; SET-2, AMkL/MPN, JAK2V617F): 4 nM
proliferation, theoretical cell number over time (SET-2; SET-2, FIG. 4): inhibits the proliferation
IC50 (SKNO-1; SKNO-1 (RUNX1-RUNX1T1), 10-day treatment, read-out: G150 after 10 days of treatment): 1 nM
GI50 (SKNO-1; SKNO-1, RUNX1-RUNX1T1): 1 nM
GI50 (UKE-1): 7 nM
difference in sensitivity, megakaryocytic vs erythroleukemia cell lines containing the same mutations (leukemia cell lines): more than 100 fold
leukemia cells in the lungs (haematoxylin and eosin staining) (MV4;11-mCLP leukemia; MV4;11 AML mice, Day 30, vs vehicle): fewer leukemia cells in the lungs
spleen weight (MV4;11-mCLP leukemia; NSG mice, disseminated MV4;11-mCLP leukemia, once daily IP for 15 days, 15 days after stopping treatment): prevents spleen weight increase

Source: patent US20180369230A1, “TARGETED SELECTION OF PATIENTS FOR TREATMENT WITH SPECIFIC CORTISTATIN DERIVATIVES” (President and Fellows of Harvard College, priority 2015, published 2018)
